Experiment [1] concerns Wild-type C57BL/6 male mice. Kind of experiment: Acute injection, in vivo cardiac hemodynamics (pressure-volume analysis) in wild-type mice. Conditions: acute injection via femoral vein, 1.5 μg/kg; compared to mice injected with saline. An excerpt:
(§1) Cardiac pressure-volume analysis. Hemodynamic, systolic, and diastolic measurements performed as previously done. Briefly, mice were anesthetized with 1% isoflurane and a 1.4 F Millar catheter was advanced from the carotid artery into the left ventricle. LV pressure-volume dynamics were simultaneously measured over a wide range of heart rates (240-600 bpm). For the TNT experiments, since there were different baseline heart rates, data was normalized to the lowest heart rate. For the acute injection experiments, 12,13-diHOME, 9,10-diHOME, or 9-HODE were infused through the femoral vein (all at 1.5 μg/kg). All pressure-volume loop parameters were calculated using PV loop analysis software module for Lab Chart on ADInstruments.
Both +BAT and exercise improved cardiac function in mice and increased circulating 12,13-diHOME. To determine if 12,13-diHOME was responsible for the improved cardiac function in +BAT and exercise-trained mice, mice were acutely injected with 12,13-diHOME and in vivo cardiac hemodynamics were measured. Acute treatment of 12,13-diHOME improved systolic function (FIG. 3A; FIG. 8A) and diastolic function (FIG. 3B; FIG. 8B) compared to mice injected with saline. There was no effect of 9,10-diHOME or 9-HODE to alter systolic (FIG. 3A; FIG. 8A) or diastolic function (FIG. 3B; FIG. 8B).

For experiment [2], the system named is cardiomyocytes constitutively expressing luciferase. The experiment is described as follows: Cardiomyocyte fatty acid uptake (FFA-SS-Luc). It counts as cell-based, mice. Conditions: 10 μM, 10 μM FFA-SS-Luc, after 30 min of incubation; vs vehicle. How it is done:
Cardiomyocyte Fatty Acid Uptake. Cardiomyocytes were isolated from 12-24 week old male LucTg (FVB-Tg(CAG-luc-GFP)L2G85Chco/J; stock no. 008450; Jackson Labs) chow-fed mice. Isolated cardiomyocytes (50,000 cells per well) were seeded onto laminin-coated 12-well plates according to standard protocols in FBS-free media for one hour. After one hour of serum-starve, 10 μm FFA-SS-Luc (Intrace Medical) conjugated probe was added to each well with or without 10 μM 12,13-diHOME directly before imaging using the IVIS Spectrum for […] optical imaging using sequential 3 min exposures for 30 min. Data were analyzed using Living Image Software, and movies were assembled from individual images using ImageJ.
Previous studies have indicated a role for 12,13-diHOME to increase fatty acid uptake. To test whether 12,13-diHOME increases fatty acid uptake in cardiomyocytes, cardiomyocytes constitutively expressing luciferase in vitro were isolated. Cells were treated with FFA-SS Luc, a fatty acid conjugated to luciferin, in the presence of 12,13-diHOME or a vehicle control.

A further experiment deals with NOS1^−/− cardiomyocyte. Kind of experiment: Cardiomyocyte sarcomere function and calcium transient, NOS1−/− cardiomyocytes. The format is cell-based, mice. Conditions: vs PBS. How it is done:
(§2) Measurements of Cardiomyocyte Sarcomere Function and Calcium Transient. Cardiomyocytes were isolated from wild-type C57BL/6 male mice (Charles River) or NOS1^−/− mice (B6; 129S4-Nos1^tm1Plh/J; stock no. 002633; Jackson Labs). Unloaded cardiomyocyte function (sarcomere shortening, kinetics and Ca^2+ transients) were measured as previously performed. In brief, hearts were rapidly excised and cannulated on a constant-flow Langendorff perfusion apparatus, and perfused via the aorta at 37° C. with buffer containing (in mM) 113 NaCl, 4.7 KCl, 0.6 KH2PO4, 0.6 Na2HPO4, 1.2 MgSO4, 12.4 BMD, 12 NaHCO3, 10 KHCO3, 10 HEPES 1M, and 30 Taurine, followed by digestion with liberase enzyme (0.25 mg/ml). After perfusion and digestion ventricles were removed and minced (under sterile conditions), filtered, and equilibrated with 1 mM CaCl2 and FBS at room temperature. Cardiomyocytes were plated on laminin-coated glass slides and placed on the stage of an inverted Olympus IX-71 microscope and superfused (˜1 ml/min at 30° C.) with contractile buffer containing (in mM, pH 7.4) 4 KCl, 131 NaCl, 1 MgCl2, 10 HEPES, 1 CaCl2), and 10 glucose. The cells were visualized using a 40× objective and field-stimulated at 1 Hz for 3 ms using a Myopacer Field-Stimulator system. Sarcomere length, time to contraction/relaxation and contraction/relaxation kinetics will were recorded using the IonOptix video imaging system and a Myocam-S Digital charge-coupled device camera. Changes in intracellular Ca^2+ levels were monitored using (0.5 μM) Fura-2 dual-excitation (360/380 nm) single emission (510 nm) ratiometric imaging. Measurements were taken at baseline and with acute superfusion of 10 μM 12,13-diHOME.

The next experiment concerns NOS1^−/− cardiomyocytes. Kind of experiment: Seahorse bioanalyzer respiration, NOS1−/− cardiomyocytes. The format is cell-based, mice. Conditions: vs vehicle. How it is done: (§3) Seahorse bioanalyzer. Cardiomyocytes were isolated from 12-24 week old male C57BL/6 male (Charles river) or NOS1^−/− mice (B6; 129S4-Nos1^tm1Pth/J; stock no. 002633; Jackson Labs), chow fed mice. Isolated cardiomyocytes (25,000 per well) were seeded onto laminin-coated Seahorse Plates (Agilent) according to standard protocols. Cells were treated for 1 h with 10 μM 12,13-diHOME or were untreated. The oxygen-consumption rates (OCR; indicating mitochondrial respiration) and extracellular acidification rates (ECAR; indicating glycolysis rate) were monitored in a Seahorse XF24 instrument using the standard protocol of 3-min mix, 2-min wait and 3-min measure. Carbonyl cyanide-p-trifluoromethoxy-phenyl-hydrazon (FCCP; 2 μM) was used to determine the cells maximal respiratory capacity by allowing the electron transport chain to function at its maximal rate (maximal respiratory capacity is derived by subtracting non-mitochondrial respiration from the FCCP rate). Oligomycin (a complex V inhibitor; 2 μM) was used to derive ATP-linked respiration (by subtracting the oligomycin rate from baseline cellular OCR) and proton leak respiration (by subtracting non-mitochondrial respiration from the oligomycin rate). AntimycinA/Roteone (mitochondrial inhibitors; 0.5 μM) was used to determine non-mitochondrial respiration. For mechanistic experiments, cells were treated for 1 h with tetracaine (specific RyR inhibitor; 1 mM), 2,3-butanedione monoxime (BDM; myosin-ATPase inhibitor; […]) and nifedipine (L-type calcium channel inhibitor; 10 μM) were used. Data from wells of the same treatment group were averaged together and analyzed directly using Waves software. For the normalization of respiration to protein content, cells were lysed in RIPA buffer and protein concentration was measured by Bradford assay.

Another experiment relates to NOS1^−/− mice. The experiment is described as follows: Acute injection of 12,13-diHOME, in vivo cardiac hemodynamics in NOS1−/− mice.
Text: as §1
Next, the mechanism through which 12,13-diHOME modulates cardiomyocyte function and respiration was investigated. It was shown that nitric oxide (NO) production via NO synthase type 1 (NOS1) is essential for the beneficial effects of exercise to the heart. Since +BAT had similar effects on the heart as exercise, 12,13-diHOME can function through a similar mechanism. Mice deficient in NOS1 (NOS1^−/−) were acutely injected with 12,13-diHOME and in vivo cardiac hemodynamics were measured. […] In addition, 12,13-diHOME had no effect on NOS1^−/− cardiomyocyte peak shortening, Ca^2+ transients, or kinetics (FIGS. 5C-5F).

The subject of experiment [3] is isolated cardiomyocytes. The experiment is described as follows: Seahorse bioanalyzer respiration, wild-type cardiomyocytes. It counts as cell-based, mice. On the procedure: as §3
The subject of experiment [4] is isolated cardiomyocytes. The experiment is described as follows: Cardiomyocyte sarcomere function and calcium transient, wild-type cardiomyocytes. It counts as cell-based, mice. The following applies: acute superfusion of 10 μM; vs vehicle. How it is done:
as §2

The next experiment has as its system Sham or +BAT mice. The experiment is described as follows: Oral gavage of sEH inhibitors in Sham or +BAT mice, in vivo cardiac hemodynamics. Conditions: daily oral gavage 0.5 mg/kg for 2 weeks, starting 10 weeks after surgery. How it is done: Oral gavage of sEH inhibitors. C57BL/6 male mice (Charles River Laboratories) were fed a normal chow diet before and throughout the experiment. Sham and +BAT mice underwent daily oral gavage of sEH inhibitors beginning 10 weeks after the transplant or sham surgery. Mice underwent daily oral gavage with vehicle (Phosphate Buffer Saline [PBS]), or 25 mg/L AUDA in PBS (Cayman Chemicals #10007927), or 50 mg/L t-AUCB in PBS (Cayman Chemicals #16568). Mice were gavaged at 0.5 mg/kg daily for 14-16 days.
as §1, with “ADInstruments. […]” for “ADInstruments.”

Setting [5] is: incubation with RyR2 inhibitor tetracaine.

With `CCCCC/C=C\CC(O)C(O)CCCCCCCC(=O)O` (stereo not drawn) [9,10-diHOME], in experiment [1], the diastolic function entry is “no effect” and the systolic function entry is “no effect”.

For `CCCCC/C=C\C=C\C(O)CCCCCCCC(=O)O` (stereo not drawn) [9-HODE], in experiment [1], the diastolic function result is “no effect” and the systolic function entry is on record as “no effect”.

Consider `CCCCCC(O)C(O)C/C=C\CCCCCCCC(=O)O` (stereo not drawn) [12,13-diHOME], for which the fatty acid uptake entry in experiment [2] is recorded as “significantly elevated”. Moreover, in the experiment with NOS1^−/− cardiomyocyte, the “Ca2+ transients” value was “no effect”; the “kinetics (maximal velocity of shortening and relengthening)” value is “no effect”; the peak shortening entry is recorded as “no effect”. In the experiment on NOS1^−/− cardiomyocytes, the “basal oxygen consumption rates (OCR)” value is “no effect”, the maximal respiratory capacity entry is given as “no effect” and the non-mitochondrial respiration entry is “no effect”. In the experiment on NOS1^−/− mice, the diastolic function entry is “no effect” and the systolic function result is listed as “no effect”. In addition, in the experiment with isolated cardiomyocytes [3] (10 μM for 1 h, vs vehicle), the “basal oxygen consumption rates (OCR)” value is on record as “increased”, the maximal respiratory capacity result is “increased” and the non-mitochondrial respiration result was “increased”. Further, the “basal OCR” value with isolated cardiomyocytes [3] (in the presence or absence of RyR2 inhibitor tetracaine) is listed as “increased”. Further, in the experiment with isolated cardiomyocytes [3] (setting [5]), the “effect of 12,13-diHOME on maximal respiration” value is listed as “blunted” and the “effect of 12,13-diHOME on non-mitochondrial respiration” value is recorded as “blunted”. Also, in the experiment with isolated cardiomyocytes [3] (with myosin inhibitor BDM), the “effect of 12,13-diHOME on basal OCR under myosin inhibition” value was “did not prevent”, the “effect of 12,13-diHOME on maximal respiration under myosin inhibition” value is reported as “did not prevent” and the “effect of 12,13-diHOME on non-mitochondrial respiration under myosin inhibition” value is on record as “prevented the increase”. For the same compound, in the experiment on isolated cardiomyocytes [4], the “Ca2+ transient amplitude” value is reported as “increase”, the “maximal velocity of relengthening (−dL/dt)” value is “greater”, the “maximal velocity of shortening (+dL/dt)” value was “greater” and the peak cardiomyocyte shortening result is “increased”. Further, in experiment [1], the diastolic function result was “improved” and the systolic function result is “improved”.

With `O=C(O)CCCCCCCCCCCNC(=O)NC12CC3CC(CC(C3)C1)C2` [AUDA], in the experiment with Sham or +BAT mice, the “cardiac function (systolic and diastolic) of +BAT vs Sham mice in the presence of sEH inhibitor” value was “no effect of +BAT to improve cardiac function”.

For `CCCCNc1ccc(C(=O)OCCN(C)C)cc1` [tetracaine, reference compound], the maximal respiration result in the experiment on isolated cardiomyocytes [3] (tetracaine 1 mM for 1 h, independent of 12,13-diHOME) was “decrease”.

Values taken from patent US20230279372A1, “METHODS TO CONTROL LIPOKINE CONCENTRATIONS AND USES THEREOF” (Ohio State Innovation Foundation, priority 2020, published 2023).
